Residues, ends and D or L forms follow the SMILES beside them. *: point of attachment. Boc = CC(C)(C)OC(=O)*; NHNH2 = NN*

The term melting point denotes the temperature, or range, at which the solid turns liquid. In turn, `CSCCC(NC(=O)C(CCCCNC(=O)OC(C)(C)C)NC(=O)C(Cc1ccc(O)cc1)NC(=O)C1CCCN1)C(=O)NN` (configuration not stated) (H-PYK(Boc)M-NHNH2; configuration not given here) registered a melting point of 206 to 207 °C.

`COCCNC(=S)n1nc(Oc2ncc(C(F)(F)F)cc2Cl)cc1C` had a melting point of 108 to 109 °C.

`CS(=O)(=O)OCC1(COc2ccc(Br)cc2)COC1`: the melting point was 89 to 91 °C.

Turning to `Nc1ccc(-c2nc3c(s2)C(=O)c2ccccc2C3=O)o1`, the melting point is greater than 260 °C.

The compound `Cc1nc(N2CCC(c3ccccc3)CC2)c([N+](=O)[O-])c(=O)[nH]1` came in with a melting point of 210 to 213 °C.

`NC(=O)COCCN1CCN2c3ccccc3Cc3ccccc3C2C1` (configuration not stated): the melting point fell in the range of 66 to 68 °C.

On to `CC(Oc1ncn(-c2cccc(Cl)c2)n1)C(=O)O` (configuration not stated), for which the melting point is 197 to 199 °C.

`C=CCc1c(OC)cc(OC)cc1C(=O)O` displayed a melting point of 109 to 111 °C.

`O=[N+]([O-])c1cccc(Oc2ccc(-c3ccccc3)cc2)c1`: the melting point lay within 97.6 to 98.8 °C.

Consider `C=C(C)[C@@H]1CC[C@]2(C(=O)N[C@H]3C[C@@H](C(=O)N4CCCC4)C3(C)C)CC[C@]3(C)[C@H](CC[C@@H]4[C@@]5(C)CC[C@H](OC(=O)CC(C)(C)C(=O)O)C(C)(C)[C@@H]5CC[C@]43C)[C@@H]12`, for which the melting point is 110 to 114 °C.

`CCC(O)(CC)c1csc(-c2cccc(OCc3ccc(CO)c(CO)c3)c2)c1` had a melting point of 47 °C.

In turn, `C=CCC1(C(=O)N2CCCCC2)c2ccccc2-c2ccccc21` registered a melting point of 64 to 66 °C.

For `COc1ccc2nc(-c3nc(N)nc(N)n3)sc2c1`, the melting point is greater than 250 °C.

On to `COC(=O)C1CC(O)CN1C(=O)c1ccc(OC)c(OC)c1` (configuration not stated), for which the melting point came to 174 °C.

`CC1C(C)(C)C2=C(c3ncncc3CC2)C1(C)C` (configuration not stated) displayed a melting point of 80 °C.

`Cc1noc(NS(=O)(=O)c2ccsc2C(=O)NS(=O)(=O)c2cccc3c(N(C)C)cccc23)c1Br` yielded a melting point of 184 to 186 °C.

For `O=C1CCCC2=C1C(c1ccc(F)cc1O)C1=C(CCS1)N2` (configuration not stated), the melting point is greater than 250 °C.

`CC(=O)Nc1ccc(NC(=O)C=C2CC(C(=O)OCc3ccccc3)Nc3cc(Cl)cc(Cl)c32)cc1` (racemic) yielded a melting point of 275 °C.

On to `CCCCc1nc(N)cc(=O)[nH]1`, for which the melting point was in the range of 242 to 245 °C.

The compound `O=S1(=O)c2cccc3cccc(c23)N1CCCN1CC=C(c2ccc(Cl)cc2)CC1` displayed a melting point of 111 °C.

For `CC(SC(=O)c1ccccc1)C(=O)c1ccccc1NCC(=O)O` (configuration not stated), the melting point lay within 149 to 151 °C.

`CC(C)(CO[N+](=O)[O-])C(=O)N1C(C(=O)O)CSC1c1ccccc1` (configuration not stated) returned a melting point of 35 to 38 °C.

`CC(C)(C)OC(=O)N1CCC(c2ccc(C(=O)N3CCc4cc(S(C)(=O)=O)ccc43)nc2)CC1` showed a melting point of 202 to 205 °C.

With `CC(C)(C)OC(=O)CN(C(=O)CNC(=O)Nc1ccc(Cl)cc1)c1ccccc1C(=O)c1ccccc1`, the melting point is 196 to 197 °C.

`Cn1c(CO)nc2ncccc21` had a melting point of 130 to 132 °C.

`O=Cc1cc(-c2ccc(Cl)cc2F)ccc1OC(F)(F)F` yielded a melting point of 41 to 42 °C.

`COc1cc2c(Nc3ccc(Cl)cc3F)ncnc2cc1OCCCn1ccc(=O)cc1` yielded a melting point greater than 250 °C.

`CCCc1nc(SC)c(C=O)n1Cc1ccc(-c2ccccc2S(=O)(=O)NC(=O)NCc2ccccc2)cc1`: the melting point amounted to 180 °C.

For `COc1ccc2c(c1OC)CC(c1ccccc1)CC2=O` (configuration not stated), the melting point lay within 127 to 128 °C.

With `COC1CC(NC(=O)C(F)(F)F)C(OCc2ccccc2)C(C)O1` (configuration not stated), the melting point lay within 159 to 160 °C.

In turn, `COCCOc1ccc2c(Nc3ccc(Cl)cc3Cl)c(C#N)cnc2c1` displayed a melting point of 144 to 145 °C.

`O=C(NCc1ccccc1C(F)(F)F)c1ccc2cnccc2n1` had a melting point of 125 to 127 °C.

Consider `CC(C)(C)OC(=O)N1CCC[C@@H](OC(=O)Nc2ccc(Cl)cc2)C1`, for which the melting point was 160 to 161 °C.

In turn, `CC(C)(C)n1nc(-c2ccccc2)c(C(N)=O)c1N` returned a melting point of 177 to 178 °C.

Turning to `O=C(CCCc1c[nH]c2ccccc12)NCc1ccccc1`, the melting point is 132 to 133 °C.

In turn, `CCOC(=O)c1nc(C(=O)Oc2ccccc2)sc1N` displayed a melting point of 168 °C.

`Cc1c(Cl)cccc1S(=O)(=O)Nc1nc(CC(=O)N(C)C)cs1` showed a melting point of 84 °C.

As for `C[C@@H]1CN(Cc2ccc(COc3cccc4c3CN(C3CCC(=O)NC3=O)C4=O)cc2)C[C@H](C)O1` (some centres not stated), the melting point was in the range of 164 to 166 °C.

As for `CC(CC(C)C1CCC2C3C(O)CC4CC(O)CCC4(C)C3CCC12C)C(=O)O` (configuration not stated), the melting point lay in the range of 125 to 127 °C.

`CC(C)(C)c1cc(SCCC(=O)N2CCOCC2)cc(C(C)(C)C)c1O` returned a melting point of 136 to 138 °C.

As to `CCCn1cc2c(C3C(=O)Nc4ccc(Br)cc43)nc(NCCc3ccccn3)nc2n1` (configuration not stated), the melting point fell in the range of 283 to 291 °C.

Compound `C#CCc1c(C)nc2c(OCc3ccccc3C)nccn12` showed a melting point of 123 to 124 °C.

Take `CC(=O)CC(C)c1ccc(-c2ccccc2F)cc1` (configuration not stated): the melting point was in the range of 60 to 61 °C.

Compound `COc1cc(C(=O)C#CC(=O)OCC=C(C)C)cc(OC)c1OC` displayed a melting point of 52 to 53 °C.

With `Cn1cc(CS(C)(=O)=O)c(=O)c2ccc(C(F)(F)F)cc21`, the melting point was 240 to 242 °C.

Consider `COC(=O)c1ccc(COc2ccc3cc(-c4csc(-c5ccccc5)n4)ccc3c2Br)cc1`, for which the melting point lay in the range of 173 to 175 °C.

Consider `COC(=O)C1=C(C)NC(C2CCCCC2)=C(S(=O)(=O)N(C)C)C1c1cccc([N+](=O)[O-])c1` (configuration not stated), for which the melting point lay in the range of 185 to 188 °C.

Turning to `Cc1cc(NC(=O)Cc2ccccc2)cc(C)c1S(=O)(=O)C[N+](=O)[O-]`, the melting point fell in the range of 158 to 159 °C.

The compound `Cc1ccc(CCCO)c(NCc2ccc3nc(NCCCN4CCOCC4)n(Cc4cc(Br)ccc4O)c3c2)c1` registered a melting point of 134 °C.

`CS(=O)(=O)N(Cc1cccnc1)c1ccc(F)cc1F` yielded a melting point of 132 to 135 °C.

The compound `O=C1C=CC(OCc2ccccc2)N1S(=O)(=O)c1ccccc1` (configuration not stated) yielded a melting point of 56 to 58 °C.

`CS(=O)(=O)c1nc2cnc3cccnc3c2n1Cc1ccccc1` came in with a melting point of 187 to 191 °C.

In turn, `O=C(N[C@H](Cc1ccccc1)C(=O)O)OCc1ccc2oc(-c3ccccc3)cc2c1` gave a melting point of 173 to 174 °C.

`COCC(=O)c1cccc(S(N)(=O)=O)c1`: the melting point was 121 to 122 °C.

On to `O=C(O)c1cccc2c1CCc1cccc(O)c1S2`, for which the melting point fell in the range of 171 to 173 °C.

Compound `Cc1cc(=O)n(-c2ccc(Cl)cc2)cn1` displayed a melting point of 177 to 179 °C.

Compound `O=C(c1ccccc1)N1CCC(CO)CC1` yielded a melting point of 83 to 85 °C.

With `CC(C)(C)C(NC(=O)c1ccc(Cl)cc1)NC(=S)Nc1cccnc1` (configuration not stated), the melting point lay in the range of 164 to 167 °C.

`CC(C)=CCNC(=O)Cn1ccnc1[N+](=O)[O-]` registered a melting point of 174 to 176 °C.

Regarding `Cc1ccc(S(=O)(=O)Nc2nc(-c3cccc(C#N)c3)cs2)cc1`, the melting point was greater than 250 °C.

Compound `O=c1c2c(nc3n1CCc1c-3[nH]c3cc(Cl)cc(Cl)c13)CCCC2` gave a melting point of 296 to 297 °C.

The compound `CCc1cc(C)cc(CC)c1CC(=O)O` yielded a melting point of 124 °C.

With `O=C(c1cccnc1)N1CC2CCc3ccccc3C2=N1` (configuration not stated), the melting point lay within 141 to 143 °C.

Compound `COc1cccc(Cc2ccccc2)c1C(=O)O` returned a melting point of 159 to 161 °C.

`CN1CCC(c2cc3ccc(Cl)cc3c(=O)[nH]2)CC1`: the melting point was 253 to 255 °C.

On to `O=[N+]([O-])c1ccc2c(c1)C(c1ccccc1)=NCc1cc(CO)nn1-2`, for which the melting point lay in the range of 192 to 194 °C.

For `CCCOCCOC(=O)C1=C(C)NC(C)=C(c2nc(CCl)no2)C1c1cccc([N+](=O)[O-])c1` (configuration not stated), the melting point was in the range of 129 to 130 °C.

With `Cc1ccc(-c2ccccc2)cc1Cn1c(Cl)nn(C)c1=O`, the melting point amounted to 116 °C.

With `CC(C)(C)c1cc(C(C)(C)C)c(N)cc1N`, the melting point lay in the range of 153 to 154 °C.

With `CC=CCOc1c(I)cc(C(C)O)nc1Cl` (configuration not stated), the melting point lay within 61 to 62.5 °C.

Turning to `CN(C)c1ncc(-c2cccc(Nc3ccc(-n4cccc4)cc3[N+](=O)[O-])c2)cn1`, the melting point lay in the range of 166 to 168 °C.

As for `O=C(O)c1cc(Cl)cc(OCc2ccccc2)c1`, the melting point was 127 to 129 °C.

With `CCC(CC)(CCCS(N)(=O)=O)COc1nn2ncnc2cc1C`, the melting point is 157 to 158 °C.

In the case of `CCCc1nn(C)c2c(=O)[nH]c(Cc3ccc(NC=O)cc3)nc12`, the melting point fell in the range of 260 to 261 °C.

In turn, `O=[N+]([O-])c1ccc(-c2nc(-c3cccnc3)no2)cc1` displayed a melting point of 163 to 166 °C.

The compound `CCN(CC)C(=O)COc1ccccc1C(O)(CC)c1cccc(Cl)c1` (configuration not stated) yielded a melting point of 93 to 94 °C.

Consider `CC(O)CN(CC(C)O)C1CC(C)(C)NC(C)(C)C1` (configuration not stated), for which the melting point lay in the range of 97 to 102 °C.

In turn, `C=C(c1cc(F)ccc1OCc1ccc(-c2ccccc2)cc1)n1ccnc1` registered a melting point of 97 to 98 °C.

Turning to `COC(COC(C)=O)C1=CCC2C3CCC4=CC(=O)CCC4(C)C3CCC12C` (configuration not stated), the melting point was in the range of 115 to 157 °C.

For the compound `CCOCc1nc2c(N)nc3cc(OCCN)ccc3c2n1CC(C)(C)O`, the melting point was 163 to 165 °C.

The compound `CCCCc1oc2ccccc2c1C(=O)NCc1ccc2c(-c3ccccc3)c(OCc3nnn[nH]3)ccc2c1` came in with a melting point of 192 to 196 °C.

`Nc1cc2c(cc1[N+](=O)[O-])OCC2`: the melting point worked out at 152 °C.

As for `CC(C)(C)OC(=O)NCc1ccc(OCCC2Oc3ccccc3N(Cc3ccccc3Cl)C2=O)cc1` (configuration not stated), the melting point fell in the range of 121 to 123 °C.

As to `CON=C1CN(c2c(F)cc3c(=O)c(C(=O)O)cn(C4CC4)c3c2F)CC12CNC2`, the melting point lay within 205 to 207 °C.

Consider `Nc1n[nH]c2c1cnc1c(NC(=O)c3c(Cl)cccc3Cl)cccc12`, for which the melting point was greater than 300 °C.

As for `CCOc1nc(=O)n(C(=O)NC(=O)CCl)s1`, the melting point is 132 °C.

`COc1ccc(/C(=C\C=C\C(=O)Oc2ccc([N+](=O)[O-])cc2)C2CC2)cc1` showed a melting point of 111 to 112 °C.

The values above are taken from a melting point compilation (Tetko et al.; mined from patent text by program, amines drawn as free bases though some values may be those of a salt).
